In US20100022568A1, “ENDOTHELIN RECEPTOR ANTAGONISTS FOR EARLY STAGE IDIOPATHIC PULMONARY FIBROSIS” (Actelion Pharmaceeuticals Ltd., priority 2006, published 2010):
Entries after “also recorded” stand apart in the source; their conditions may differ. Like-named read-outs stand apart in the source and are kept apart here. Square brackets hold non-standard residues; d marks the D form. Peptide text beside a SMILES is read from it.

How the values were obtained:
[1] = tested on: Swiss 3T3 mouse embryonic fibroblasts; experiment: cells
Procedure: Experiments were performed on the mouse embryonic fibroblast cell line Swiss 3T3 (Deutsche Sammlung fur Mikroorganismen und Zellen, DSMZ ACC 173). Cells were starved for 24 h in serum-free medium or medium containing 0.5% serum followed by a 24 h incubation with endothelin-1 at a concentration giving approximately 50% or preferably 80% of its maximal efficacy, in presence either of vehicle or of an antagonist at increasing concentrations or an antagonist in combination with Pirfenidone.
Potential cytotoxic effects are excluded by assessing fibroblast proliferation using the MTS reagent (21). Collagen neo-synthesis by fibroblasts is assessed by measuring ^3H-proline incorporation (22).
Using a concentration of ET-1 of 1 nM (EC80), the below mentioned endothelin receptor antagonists were analyzed for antagonistic activity on ET-1-induced collagen neo-synthesis.

rat mesangial cells = settings: cited from earlier work
patients with IPF = experiment: BUILD-1 clinical study (phase II/III, placebo-controlled) in IPF patients; type: in vivo, human
From the text: BUILD 1 study was a multicentric, randomized, double-blind, placebo-controlled, phase II/III study in IPF patients. […] Treatment failure was defined either as worsening of PFTs or the occurrence of an acute decompensation of IPF. PFT worsening was defined as 2 out of the following 3 criteria • Decrease from baseline ≧10% in Forced vital capacity (FVC) • Decrease from baseline ≧15% in diffusion capacity for carbon monoxide (DLCO). • Decrease from baseline ≧4% in O2 saturation (blood gas) at rest or increase from baseline ≧8 mmHg in alveolar capillary O2 gradient (A-a PO2).
Main inclusion criteria: proven IPF diagnosis <3 years duration, either via a surgical lung biopsy or when not done according to the ATS/ERS consensus criteria (see above). The main inclusion criteria were the presence of FVC ≧50% of predicted value and DLCO ≧30% of predicted value.
The planned treatment period 1 was 12 months. Patients were evaluated at regular interval up to End-of-Period 1 (Month 12 months) and up to the End-of-Study i.e. when the last patient has his/her last visit. The 6MWT and pulmonary function tests were evaluated at each visit.
The analyses were run by a single radiologist who was blinded to the group allocation. Each patient CT was scored for honeycomb as well as ground-glass from the 3 zones of each lung namely upper mid and lower zone. Increment for HC and ground-glass was rounded to the upper 5%.

human fibroblasts = settings: cited from earlier work
cell cultures = settings: cited from earlier work
[2] = tested on: various animal models of fibrosis; settings: cited from earlier work
[3] = tested on: norepinephrine-induced aortic remodeling and fibrosis; settings: cited from earlier work
diabetic rat kidney = settings: cited from earlier work
[4] = Mus musculus, Swiss-3T3, read-out: IC50 on ET-1-induced collagen neo-synthesis in 3T3 fibroblasts
[5] = patients with surgical lung biopsy, N = 49

Compound: COC(c1ccccc1)(c1ccccc1)[C@H](Oc1nc(C)cc(C)n1)C(=O)O [Ambrisentan]
- IC50 [1, 4]: 79 nM

Compound: COc1ccccc1Oc1c(NS(=O)(=O)c2ccc(C)cn2)nc(-c2ccncc2)nc1OC [Avosentan]
- IC50 [1, 4]: 330 nM

Compound: CC(C)C[C@@H]1NC(=O)[C@@H](C(C)C)NC(=O)[C@@H]2CCCN2C(=O)[C@@H](CC(=O)O)NC(=O)[C@@H](Cc2c[nH]c3ccccc23)NC1=O [BQ-123] (cyclo(L[dW][dD]P[dV]))
- Fibronectin synthesis induced by ET-1 or angiotensin II (rat mesangial cells): decreased

Compound: COc1ccccc1Oc1c(NS(=O)(=O)c2ccc(C(C)(C)C)cc2)nc(-c2ncccn2)nc1OCCO [Bosentan]
- Secondary endpoints related to death or disease worsening (patients with IPF; BUILD-1, IPF patients): showed efficacy
- PFT score: occurrence of death or treatment failure at End-of-Period 1 (patients with IPF; all treated (n=71 bosentan), placebo 36.1%): 22.5%
- Primary endpoint: exercise capacity (6MWT) at End-of-Period 1 (patients with IPF; all treated, bosentan target 125 mg b.i.d., 12 months): did not show an effect; also recorded: did not show improvement
- PFTs scores at end of period 1: Improved (number of patients) (patients with IPF; [5]): 2
- PFTs scores at end of period 1: Worsened (number of patients) (patients with IPF; [5]): 6
- PFTs scores at end of period 1: Improved (percent of patients) (patients with IPF; patients with surgical lung biopsy, N = 49, 95% CL 0.5%, 14.0%, p 0.2424): 4.1%
- PFTs scores at end of period 1: Worsened (percent of patients) (patients with IPF; patients with surgical lung biopsy, N = 49, 95% CL 4.6%, 24.8%): 12.2%
- Prevention of clinical worsening in IPF patients with early disease with low or no honeycomb on HRCT lung scans (patients with IPF; post hoc analysis of BUILD 1 HRCT scans): mainly effective
- IC50 [1, 4]: 214 nM
- Effect on ET-1-induced collagen synthesis ([1]; bosentan 1 μM alone, 24 h): reverses ET-1 -induced collagen synthesis to baseline
- Ability to contract a collagen matrix (human fibroblasts; cell cultures): reduced
- Matrix metalloprotease-1 (collagenase) production (human fibroblasts; cell cultures): increased
- Fibroblast proliferation induced by ET-1 (human fibroblasts; human fibroblasts): attenuated
- Collagen synthesis (cell cultures): decreases
- Collagenase expression (cell cultures): increases
- Extracellular matrix deposition (cell cultures): inhibits
- NF-κB expression (cell cultures): reduces
- Anti-fibrotic activity in vivo [2]: potent anti-fibrotic agent

Compound: CCCNS(=O)(=O)Nc1ncnc(OCCOc2ncc(Br)cn2)c1-c1ccc(Br)cc1 [Compound 1, propyl-sulfamic acid {5-(4-bromo-phenyl)-6-[2-(5-bromo-pyrimidin-2-yloxy)-ethoxy]-pyrimidine-4-yl}-amide]
- IC50 [1, 4]: 114 nM

Compound: COc1cc(OC)nc(O[C@H](C(=O)O)C(OC)(c2ccccc2)c2ccccc2)n1 [Darusentan]
- IC50 [1, 4]: 221 nM
- Accumulation of collagen [3]: decreased

Compound: CC[C@H](C)[C@H](NC(=O)[C@H](CC(=O)O)NC(=O)[C@H](CC(C)C)NC(=O)[C@H](Cc1c[nH]cn1)NC(=O)[C@@H]1CSSC[C@H](N)C(=O)N[C@@H](CO)C(=O)N[C@H]2CSSC[C@H](NC(=O)[C@H](CCC(=O)O)NC(=O)[C@H](CCCCN)NC(=O)[C@H](CC(=O)O)NC(=O)[C@H](CCSC)NC(=O)[C@H](CC(C)C)NC(=O)[C@H](CO)NC(=O)[C@H](CO)NC2=O)C(=O)N[C@@H](C(C)C)C(=O)N[C@@H](Cc2ccc(O)cc2)C(=O)N[C@@H](Cc2ccccc2)C(=O)N1)C(=O)N[C@H](C(=O)N[C@@H](Cc1c[nH]c2ccccc12)C(=O)O)[C@@H](C)CC [ET-1, endothelin-1]
- EC50 ([1]; read-out: EC50 (concentration of ET-1 giving 50% of maximal effect) on collagen neo-synthesis, Swiss 3T3 fibroblasts, 24 h incubation): 0.24 nM

Compound: CC(C)C[C@H](NC(=O)N1CCCCCC1)C(=O)N[C@H](Cc1cn(C)c2ccccc12)C(=O)N[C@H](Cc1ccccn1)C(=O)O [FR1 39317]
- Expression of collagen, laminin and TGF-β mRNA (diabetic rat kidney): attenuated

Compound: Cc1cc2c(cc1CC(=O)c1sccc1S(=O)(=O)Nc1onc(C)c1Cl)OCO2 [Sitaxsentan]
- IC50 [1, 4]: 369 nM

Compound: CC(=O)c1cc(C)cc(C)c1NC(=O)c1sccc1S(=O)(=O)Nc1onc(C)c1C [TBC3711]
- IC50 ([1]; read-out: IC50 on ET-1-induced collagen neo-synthesis in 3T3 fibroblasts, ET-1 1 nM (EC80), n >= 2): 59 nM

Compound: Cc1ccc(=O)n(-c2ccccc2)c1 [pirfenidone]
- inhibition at 1000 µM ([1]; Mus musculus, Swiss-3T3, 24 h, read-out: Inhibitory effect on collagen neo-synthesis): 55%
